Consider 7 compounds from patent publication US9018258B2, “Substituted 1-benzylcycloalkylcarboxylic acids and the use thereof” (Bayer Intellectual Property GmbH, priority 2010, dated 2015).

Experiment [1] addresses T1, sGC (Rattus norvegicus, UniProt P20595).
T1 construct: expressed in transfected cells; host or cells: CHO reporter cell
Briefly: Action at a recombinant guanylate cyclase reporter cell line (CHO reporter cell). To be noted: CHO reporter cell in vitro. It counts as cell-based. As to the method:
The cellular action of the compounds according to the invention is determined at a recombinant guanylate cyclase reporter cell line, as described in F. Wunder et al., Anal. Biochem. 339, 104-112 (2005).

Experiment [2] addresses T2, soluble guanylate cyclase (sGC) (Rattus norvegicus, UniProt P20595).
T2 construct: made in house; host or cells: Sf9 insect cells (baculovirus)
Briefly: Stimulation of sGC enzyme activity (PPi detection, luciferase). It counts as biochemical. To be noted: sGC enzyme in vitro; for pEC50: read-out: EC50 (concentration at 50% of maximum efficacy), activating action at the sGC enzyme. How it is done: Soluble guanylate cyclase (sGC) converts on stimulation GTP into cGMP and pyrophosphate (PPi). PPi is detected with the aid of the assay described below. The signal produced in the assay increases as the reaction progresses and serves as a measure of the sGC enzyme activity under the given stimulation.
To carry out the assay, 29 μl of enzyme solution [0-10 nM soluble guanylate cyclase (prepared according to Honicka et al., J. Mol. Med. 77, 14-23 (1999)) in 50 mM TEA, 2 mM MgCl2, 0.1% BSA (fraction V), 0.005% Brij®, pH 7.5] are initially introduced into a microplate, and 1 μl of the substance to be tested (as a serially diluted solution in DMSO) is added. The mixture is incubated at room temperature for 10 min. Then 20 μl of detection mix [1.2 nM Firefly Luciferase (Photinus pyralis luciferase, Promega), 29 μM dehydroluciferin (prepared according to Bitler & McElroy, Arch. Biochem. Biophys. 72, 358 (1957)), 122 μM luciferin (Promega), 153 μM ATP (Sigma) and 0.4 mM DTT (Sigma) in 50 mM TEA, 2 mM MgCl2, 0.1% BSA (fraction V), 0.005% Brij®, pH 7.5] are added. The enzyme reaction is started by adding 20 μl of substrate solution [1.25 mM guanosine 5′-triphosphate (Sigma) in 50 mM TEA, 2 mM MgCl2, 0.1% BSA (fraction V), 0.005% Brij®, pH 7.5] and measured continuously in a luminometer. The extent of the stimulation by the substance to be tested can be determined relative to the signal of the unstimulated reaction.
The activation of haem-free guanylate cyclase is examined by addition of 25 μM of 1H-1,2,4-oxadiazolo[4,3-a]quinoxalin-1-one (ODQ) to the enzyme solution and subsequent incubation for 30 minutes and compared to the stimulation of the native enzyme.

The target in experiment [3] is T3, GAL4-PPARδ (Homo sapiens, UniProt Q03181).
T3 construct: PPARδ (amino acids 138-442); expressed in transfected cells
T3 sequence (Q03181 138-441 limits assumed): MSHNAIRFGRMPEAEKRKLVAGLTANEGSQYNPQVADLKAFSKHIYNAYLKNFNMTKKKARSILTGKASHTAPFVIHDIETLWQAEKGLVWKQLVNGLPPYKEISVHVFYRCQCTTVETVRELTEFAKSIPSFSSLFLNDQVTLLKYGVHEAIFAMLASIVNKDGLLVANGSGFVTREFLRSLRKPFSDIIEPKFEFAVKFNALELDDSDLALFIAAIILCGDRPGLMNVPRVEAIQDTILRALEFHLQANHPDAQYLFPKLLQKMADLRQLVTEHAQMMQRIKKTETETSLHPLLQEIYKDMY
Briefly: Cellular PPAR transactivation assay, GAL4-PPARδ chimera in CHO-K1 cells. To be noted: for Emax: CHO-K1, maximum effect relative to reference compound (Example 73 of EP 1 452 521-A1 = 100%), read-out: PPARδ efficacy; for pEC50: CHO-K1 cells, luciferase reporter, 6 h stimulation. It is filed as cell-based. The text has this: (§1) A cellular assay is used to test for potentially activating properties of the compounds according to the invention with respect to the three human isoforms of the peroxisome proliferator-activated receptors (PPARα, PPARγ and PPARδ).
(§2) Since mammalian cells contain different endogenous nuclear receptors which may complicate an unambiguous interpretation of the results, an established chimera system is used in which the respective ligand binding domain of the human PPAR isoforms is fused to the DNA binding domain of the yeast transcription factor GAL4. The resulting GAL4-PPARα, γ and δ chimeras are co-transfected and stably expressed in CHO cells having a reporter construct.
(§3) The GAL4-PPAR expression constructs contain the ligand binding domain of PPARα (amino acids 167-468), PPARγ (amino acids 203-506) and PPARδ (amino acids 138-442) which are PCR-amplified and cloned into the vector pcDNA3.1. The respective expression vectors already contain the GAL4 DNA binding domain (amino acids 1-147) of the vector pFC2-dbd (Stratagene). The reporter construct, which contains five copies of the GAL4 binding site upstream of a thymidine kinase promoter, expresses firefly luciferase (Photinus pyralis) following activation and binding of GAL4-PPARα, γ or δ.
(§4) The day before the test, CHO-K1 cells (chinese hamster ovary; ATCC CCL-61) each stably expressing one of the above-described GAL4-PPAR chimeras and the luciferase reporter gene construct are sown in medium [Optimem (GIBCO) with 2% activated carbon-purified foetal calf serum (Hyclone), 1.35 mM sodium pyruvate (GIBCO) and 0.2% sodium bicarbonate (GIBCO)] in a density of 1×10^3 cells in 96-well microtitre plates (Greiner) and kept in a cell incubator (96% atmospheric humidity, 5% v/v CO2, 37° C.). On the test day, the substances to be tested are taken up in the medium mentioned above, but without addition of calf serum, and added in various concentrations to the cells. After a stimulation period of 6 h, the luciferase activity is measured using a video camera. The relative light units measured give, as a function of the substance concentration, a sigmoidal stimulation curve. The EC50 values are calculated using the computer programme GraphPad PRISM (Version 3.02). The maximum effect of a test substance in the respective PPAR assay is determined as efficacy in percent in comparison to an appropriate reference compound whose maximum effect is defined as 100%.
(§5) The reference compound selected here was the compound 2-(3-{[(2-chloro-4-propoxybenzoyl)-amino]methyl}-4-ethoxybenzyl)tetrahydrofuran-2-carboxylic acid [Example 73 of EP 1 452 521-A1] which is described in the prior art as a potent pan-PPAR agonist.
(A reporter such as luciferase makes a cellular process visible.)

Experiment [4] addresses T4, GAL4-PPARγ (Homo sapiens, UniProt P37231).
T4 construct: PPARγ (amino acids 203-506); expressed in transfected cells
T4 sequence (P37231 203-505 limits assumed): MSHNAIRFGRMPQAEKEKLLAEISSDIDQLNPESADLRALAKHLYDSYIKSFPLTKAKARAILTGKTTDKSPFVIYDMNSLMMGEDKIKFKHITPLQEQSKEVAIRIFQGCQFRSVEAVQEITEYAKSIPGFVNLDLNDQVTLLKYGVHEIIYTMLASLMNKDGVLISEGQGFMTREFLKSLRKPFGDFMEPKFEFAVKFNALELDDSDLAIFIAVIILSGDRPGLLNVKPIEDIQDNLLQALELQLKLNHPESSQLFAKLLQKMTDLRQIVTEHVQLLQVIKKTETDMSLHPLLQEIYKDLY
Briefly: Cellular PPAR transactivation assay, GAL4-PPARγ chimera in CHO-K1 cells. It counts as cell-based. The conditions noted are these: for Emax: CHO-K1, maximum effect relative to reference compound (Example 73 of EP 1 452 521-A1 = 100%), read-out: PPARγ efficacy; for pEC50: CHO-K1 cells, luciferase reporter, 6 h stimulation.
From the text: as §1, §2, §3, §4, §5

In experiment [5] the target is T5, GAL4-PPARα (Homo sapiens, UniProt Q07869).
T5 construct: expressed in transfected cells
T5 sequence (Q07869 167-468): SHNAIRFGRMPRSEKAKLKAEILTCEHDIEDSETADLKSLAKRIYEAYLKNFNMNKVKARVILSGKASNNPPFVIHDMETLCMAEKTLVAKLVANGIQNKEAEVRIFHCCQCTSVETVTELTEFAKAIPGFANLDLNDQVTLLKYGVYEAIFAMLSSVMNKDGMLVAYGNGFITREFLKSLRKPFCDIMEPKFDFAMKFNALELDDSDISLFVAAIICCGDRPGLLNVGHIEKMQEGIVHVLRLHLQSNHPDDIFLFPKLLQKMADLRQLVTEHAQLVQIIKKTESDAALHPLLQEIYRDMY
Briefly: Cellular PPAR transactivation assay, GAL4-PPARα chimera in CHO-K1 cells. It is filed as cell-based. The conditions noted are these: for Emax: CHO-K1, maximum effect relative to reference compound (Example 73 of EP 1 452 521-A1 = 100%), read-out: PPARα efficacy; for pEC50: CHO-K1 cells, luciferase reporter, 6 h stimulation.
From the text: as §1, §2, §3, §4, §5

pEC50: −log10 of the molar value. Where only a bound is given, the exact number is not on record here.

T2 sequence (P19686 whole entry partner): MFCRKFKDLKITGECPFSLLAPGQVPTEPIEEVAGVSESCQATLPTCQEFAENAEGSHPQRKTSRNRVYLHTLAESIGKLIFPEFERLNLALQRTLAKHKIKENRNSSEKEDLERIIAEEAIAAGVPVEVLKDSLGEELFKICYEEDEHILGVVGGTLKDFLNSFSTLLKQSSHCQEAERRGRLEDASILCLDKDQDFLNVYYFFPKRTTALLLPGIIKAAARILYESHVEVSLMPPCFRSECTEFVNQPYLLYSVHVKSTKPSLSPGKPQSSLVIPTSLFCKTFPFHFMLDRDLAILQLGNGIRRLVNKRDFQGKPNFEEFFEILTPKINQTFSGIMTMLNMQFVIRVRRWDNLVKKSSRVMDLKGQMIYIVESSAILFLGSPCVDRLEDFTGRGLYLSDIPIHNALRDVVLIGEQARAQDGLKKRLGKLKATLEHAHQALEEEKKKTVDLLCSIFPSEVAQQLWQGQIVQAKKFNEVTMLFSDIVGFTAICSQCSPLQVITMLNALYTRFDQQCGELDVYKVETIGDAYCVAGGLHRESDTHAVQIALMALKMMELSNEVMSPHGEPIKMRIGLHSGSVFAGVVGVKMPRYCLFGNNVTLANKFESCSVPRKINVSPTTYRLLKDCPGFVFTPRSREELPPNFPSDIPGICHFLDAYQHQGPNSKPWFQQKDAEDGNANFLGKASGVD
T2 sequence (P20595 whole entry): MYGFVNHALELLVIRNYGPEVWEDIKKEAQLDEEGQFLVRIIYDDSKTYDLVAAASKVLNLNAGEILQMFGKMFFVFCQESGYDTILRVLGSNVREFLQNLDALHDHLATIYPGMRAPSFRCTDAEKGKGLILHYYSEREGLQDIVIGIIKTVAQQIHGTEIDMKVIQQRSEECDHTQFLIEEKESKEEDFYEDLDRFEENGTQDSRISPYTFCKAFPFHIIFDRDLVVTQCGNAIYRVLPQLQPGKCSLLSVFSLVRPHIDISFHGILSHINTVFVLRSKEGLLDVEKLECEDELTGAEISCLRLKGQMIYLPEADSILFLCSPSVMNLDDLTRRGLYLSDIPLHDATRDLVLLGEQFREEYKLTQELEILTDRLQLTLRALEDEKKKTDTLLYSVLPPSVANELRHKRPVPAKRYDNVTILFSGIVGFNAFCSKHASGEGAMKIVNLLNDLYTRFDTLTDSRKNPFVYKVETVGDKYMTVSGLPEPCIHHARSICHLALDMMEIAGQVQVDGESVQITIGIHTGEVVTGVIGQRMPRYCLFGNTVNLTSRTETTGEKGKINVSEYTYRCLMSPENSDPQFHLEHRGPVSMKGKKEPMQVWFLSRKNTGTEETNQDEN
T1 sequence (P19686 whole entry partner): as the sequence (P19686 whole entry partner) above
T1 sequence (P20595 whole entry): as the sequence (P20595 whole entry) above

Take `O=C(Nc1cc(CC2(C(=O)O)CC2)ccc1F)[C@H](c1ccc(Cl)cc1)C1CCCC1` (single isomer, unassigned) [Example 62]: in experiment [1], the “MEC (minimum effective concentration), sGC-activating activity in the CHO reporter cell” value (“MEC … in the CHO reporter cell” below) came to 1 nM. In experiment [2], the “MEC (minimum effective concentration), activating action at the sGC enzyme” value (“MEC … at the sGC enzyme” below) is recorded as 2.2 nM and the pEC50 was 7.52.

Turning to `O=C(Nc1cc(CC2(C(=O)O)CC2)ccc1Cl)C(c1ccc(Cl)cc1)C1CCC(F)(F)C1` (single isomer, unassigned) [Example 73, 1-(4-Chloro-3-{[(4-chlorophenyl)(3,3-difluorocyclopentyl)acetyl]amino}benzyl)cyclopropane-carboxylic acid], in experiment [1], the “MEC … in the CHO reporter cell” value is given as 1.7 nM. In addition, the Emax in experiment [3], in experiment [4] and in experiment [5] was 0% in each case. The pEC50 in experiment [3] was below 5.00; in experiment [2] it was 7.08; in experiment [4] it was below 5.00; in experiment [5], below 5.00. For the same compound, the “MEC … at the sGC enzyme” value in experiment [2] stood at 3.8 nM.

As for `CC(C(C(=O)Nc1cc(CC2(C(=O)O)CC2)ccc1Cl)c1ccc(CC(F)(F)F)cc1)C(F)(F)F` (single isomer, unassigned) [Example 82, 1-[4-Chloro-3-({4,4,4-trifluoro-3-methyl-2-[4-(2,2,2-trifluoroethyl)phenyl]butanoyl}amino)-benzyl]cyclopropanecarboxylic acid], the “MEC … in the CHO reporter cell” value in experiment [1] is recorded as 1.7 nM. For the same compound, the Emax came to 0% in experiment [3], 20% in experiment [4] and 0% in experiment [5]. The pEC50 in experiment [3] was below 5.00; in experiment [2], 7.36; in experiment [4] it was 5.64; in experiment [5], below 5.00. For the same compound, in experiment [2], the “MEC … at the sGC enzyme” value is listed as 3.4 nM.

Consider `[2H]C([2H])([2H])OC(c1ccc(Cl)c(NC(=O)[C@H](c2ccc(Cl)cc2)[C@@H](C)C(F)(F)F)c1)C1(C(=O)O)CCC1` (single isomer, unassigned) [Example 105], for which the “MEC … in the CHO reporter cell” value in experiment [1] is recorded as 3 nM. Also, the Emax in experiment [3] was 0%; in experiment [4] it was 10%; in experiment [5], 0%. Besides, the pEC50 in experiment [3] is below 5.00; in experiment [2], 6.62; in experiment [5], below 5.00. The “MEC … at the sGC enzyme” value in experiment [2] worked out at 36 nM.

`COC(c1ccc(Cl)c(NC(=O)[C@H](c2ccc(Cl)cc2)[C@@H](C)C(F)(F)F)c1)C1(C(=O)O)CCC1` (single isomer, unassigned) [Example 107]: in experiment [1], the “MEC … in the CHO reporter cell” value is on record as 3 nM. The values for the Emax in experiment [3], in experiment [4] and in experiment [5] were 0%, 10% and 0%, respectively. Further, the pEC50 was below 5.00 in experiment [3], 6.48 in experiment [2], 5.70 in experiment [4] and below 5.00 in experiment [5]. Further, the “MEC … at the sGC enzyme” value in experiment [2] amounted to 22 nM.

`COc1cc([C@@H](C(=O)Nc2cc(CC3(C(=O)O)CC3)ccc2F)[C@@H](C)C(F)(F)F)ccc1Cl` [Example 42, 1-(3-{[(2S,3R)-2-(4-chloro-3-methoxyphenyl)-4,4,4-trifluoro-3-methylbutanoyl]amino}-4-fluorobenzyl)cyclopropanecarboxylic acid]: the “MEC … in the CHO reporter cell” value in experiment [1] is reported as 3 nM. In addition, the Emax amounted to 0% in experiment [3], 10% in experiment [4] and 0% in experiment [5]. For the same compound, the pEC50 in experiment [3] was below 5.00; in experiment [4], 5.70; in experiment [5], below 5.00.

Regarding `C[C@H]([C@H](C(=O)Nc1cc(CC2(C(=O)O)CC2)ccc1Cl)c1ccc(C(C)(C)C(F)(F)F)cc1)C(F)(F)F` [Example 44, 1-[4-chloro-3-({(2S,3R)-4,4,4-trifluoro-3-methyl-2-[4-(1,1,1-trifluoro-2-methylpropan-2-yl)phenyl]-butanoyl}amino)benzyl]cyclopropanecarboxylic acid], the “MEC … in the CHO reporter cell” value in experiment [1] came to 0.3 nM. The Emax in experiment [3], in experiment [4] and in experiment [5] was 0% throughout. The pEC50 in experiment [3], in experiment [4] and in experiment [5] was below 5.00 each time.
